Experimental data from patent US20230265069A1, “Small Molecule Inhibitors That Block the Budding of Enveloped Viruses” (priority 2020, published 2023).
Like-named read-outs stand apart in the source and are kept apart here.

Legend:
HSV-2 = HSV-2 release from infected Vero cells, plaque assay; details: for EC50: read-out: EC50 (μM) Inhibition of HSV-2 Budding at 24 h
[1] = molecular target: T1, Tsg101-UEV (Tsg101 amino acids 1-145) (Homo sapiens, UniProt Q99816); experiment: Fluorescence thermal shift (FTS) assay, binding to Tsg101-UEV; details: FTS dose response, result in words
T1 sequence (Q99816 1-145): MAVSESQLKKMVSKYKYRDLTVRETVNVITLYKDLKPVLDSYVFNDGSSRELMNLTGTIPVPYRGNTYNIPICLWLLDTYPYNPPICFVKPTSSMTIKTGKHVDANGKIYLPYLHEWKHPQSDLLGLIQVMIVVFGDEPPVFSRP
Experimental: The fluorescence-based thermal shift assay is based on the observation that a protein unfolds upon heating, exposing the hydrophobic residues within its tertiary structure. The unfolding temperature (Tm) is determined by the protein's primary sequence and solution environment. The FTS assay uses a fluorescent dye sensitive to a hydrophobic environment to probe protein stability and its modulation by small molecule ligands. The dye has a low fluorescence quantum yield when in a polar environment. Once in contact with the hydrophobic core normally buried within a folded protein that has become exposed during the thermal unfolding (melting) process, the quantum yield of the dye increases, thus providing a reporting signal. Furthermore, a protein's stability can be affected by ligand binding, resulting in an increase or decrease in its melting temperature. FTS assay uses the Tm shift upon binding of a ligand to identify hit compounds for drug discovery.
We screened chemical compounds using a fluorescence thermal shift (FTS) assay (27, 28) to identify small molecules that bind directly to a truncated form of Tsg101 (amino acids 1-145) which contains the Ubiquitin E2 variant (UEV) ubiquitin-binding domain (FIG. 1A, 1B, 1C). […] This truncated Tsg101, called Tsg101-UEV, was used because full-length Tsg101 has significant solubility issues in aqueous solution. Tsg101 is an adaptor protein and thus lacks a readily deployable functional assay, making FTS a tractable approach to identify interacting compounds. FTS monitors protein thermal denaturation using SYPRO® Orange, a dye which fluoresces when bound to hydrophobic surfaces, which allows monitoring of the changes in hydrophobic surface exposure during protein denaturation (27). Since ligand binding affects protein thermal stability, it can be detected through modulation of protein thermal denaturation (melting) as a shift in melting temperature (Tm). Tsg101-UEV has a well-defined melting curve suitable for FTS. We used the FTS assay to identify compounds that bind to Tsg101-UEV.
Fluorescence thermal shift (FTS) screening to identify small molecule binding to Tsg101-UEV. FTS using thermal shift elicited by the small molecule binding effect to protein stability. FTS monitors protein thermal denaturation using environment-sensitive dye Sypro® Orange which fluoresces when bound to hydrophobic surfaces, taking advantage of the changes in hydrophobic surface exposure in protein denaturation. Discovery of small molecule binding to target protein utilizes the observation that ligand binding affects protein thermal stability, and therefore can be detected through a shift in the protein's thermal denaturation (melting) temperature (Tm). We have employed FTS to reveal changes in thermodynamic properties of Tsg101 elicited by its interaction with a small molecule. […] A fluorescence dye Sypro® Orange (Invitrogen) was used for assay detection. The dye is excited at 473 nm and has a fluorescence emission at 610 nm. The dye binds to hydrophobic regions of a protein that are normally buried in a native protein structure. […] The Tsg101 fragment was premixed at a concentration of 2 μM with a 5× concentration of Sypro® Orange in HEPES buffer (100 mM HEPES, 150 mM NaCl, pH 7.5). Then 10 μl of the protein-dye mix was added to an assay plate and 10 to 50 nanoliters of compound, equal to 10 to 50 μM, were added with an acoustic transfer robot Echo550 (Labcyte, CA).

[2] = HSV-2 infected Vero cells, virus released into media, plaque assay
[3] = Human alphaherpesvirus 2, Vero, 24 h

| Molecule | EC50 (HSV-2; [2]) | EC50 (HSV-2; [3]) | other results |
| --- | --- | --- | --- |
| 4-desmethoxy-omeprazole | 52 µM |  |  |
| 5-methoxy-2[[(3,5-dimethyl-4-methoxy-pridin-2-yl-N-oxide)methyl]sulfinyl]-1H-benzimidazole [O-omeprazole] |  |  | EC50 (μM) Inhibition of HSV-2 Budding at 24 h (HSV-2; [2]): inactive; Thermal shift (Tm shift) of Tsg101-UEV caused by compound [1]: did not cause a detectable thermal shift |
| Cc1c(OCC(F)(F)F)ccnc1C[S+]([O-])c1nc2ccccc2[nH]1 (stereo not drawn) [Lansoprazole] |  | 84 µM |  |
| COc1ccc2[nH]c([S+]([O-])Cc3ncc(C)c(OC)c3C)nc2c1 (stereo not drawn) [Omeprazole] |  | 78 µM |  |
| Dexlansoprazole | 76 µM |  |  |
